Results reported in PubChem BioAssay (NCI).
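The compound was tested at five concentrations on cells cultured in 96-well plates, with a 48-hour exposure period. GI50 = concentration required for 50% inhibition of growth. TGI denotes the concentration required for complete inhibition of growth.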

Assays:
Assay in all cases: growth of human tumour cells (NCI), 48 h
[1] = test system: 786-0 renal
[2] = test system: A498 renal
[3] = test system: A549 NSCLC
[4] = test system: ACHN renal
[5] = test system: CAKI-1 renal
[6] = test system: CCRF-CEM leukemia
[7] = test system: COLO 205 colon
[8] = test system: DMS 114 small cell lung
[9] = test system: DMS 273 small cell lung
[10] = test system: EKVX NSCLC
[11] = test system: HCC-2998 colon
[12] = test system: HCT-116 colon
[13] = test system: HCT-15 colon
[14] = test system: HL-60(TB) leukemia
[15] = test system: HOP-18 NSCLC
[16] = test system: HOP-62 NSCLC
[17] = test system: HOP-92 NSCLC
[18] = test system: HT29 colon
[19] = test system: IGROV1 ovarian
[20] = test system: K-562 leukemia
[21] = test system: KM12 colon
[22] = test system: KM20L2 colon
[23] = test system: LOX IMVI melanoma
[24] = test system: LXFL 529 NSCLC
[25] = test system: M14 melanoma
[26] = test system: M19-MEL melanoma
[27] = test system: MALME-3M melanoma
[28] = test system: MOLT-4 leukemia
[29] = test system: NCI-H226 lung
[30] = test system: NCI-H23 lung
[31] = test system: NCI-H460 lung
[32] = test system: NCI-H522 lung
[33] = test system: OVCAR-3 ovarian
[34] = test system: OVCAR-5 ovarian
[35] = test system: OVCAR-8 ovarian
[36] = test system: RPMI-8226 leukemia
[37] = test system: RXF 393 renal
[38] = test system: RXF-631 renal
[39] = test system: SF-268 CNS
[40] = test system: SF-295 CNS
[41] = test system: SF-539 CNS
[42] = test system: SK-MEL-2 melanoma
[43] = test system: SK-MEL-28 melanoma
[44] = test system: SK-MEL-5 melanoma
[45] = test system: SK-OV-3 ovarian
[46] = test system: SN12C renal
[47] = test system: SNB-19 CNS
[48] = test system: SNB-75 CNS
[49] = test system: SNB-78 CNS
[50] = test system: SR leukemia
[51] = test system: SW-620 colon
[52] = test system: TK-10 renal
[53] = test system: U251 CNS
[54] = test system: UACC-257 melanoma
[55] = test system: UACC-62 melanoma
[56] = test system: UO-31 renal
[57] = test system: XF 498 CNS
[58] = test system: DLD-1 colon
[59] = test system: OVCAR-4 ovarian
[60] = test system: BT-549 breast
[61] = test system: DU-145 prostate
[62] = test system: HS 578T breast
[63] = test system: MCF7 breast
[64] = test system: MDA-MB-231 breast
[65] = test system: MDA-MB-435
[66] = test system: NCI/ADR-RES ovarian
[67] = test system: PC-3 prostate
[68] = test system: T-47D breast

## Cc1ccc(NC(=O)CC/C(CC(=O)C(C)(C)C)=N/Nc2nnc(C)n2N)cc1C
[1]
  TGI: > 100 µM
[2]
  TGI: > 100 µM
[3]
  TGI: > 100 µM
[4]
  TGI: > 100 µM
[5]
  TGI: > 100 µM
[6]
  TGI: > 100 µM
[7]
  TGI: > 100 µM
[8]
  TGI: > 100 µM
[9]
  TGI: > 100 µM
[10]
  TGI: > 100 µM
[11]
  TGI: > 100 µM
[12]
  TGI: > 100 µM
[13]
  TGI: > 100 µM
[14]
  TGI: > 100 µM
[15]
  TGI: > 100 µM
[16]
  TGI: > 100 µM
[17]
  TGI: > 100 µM
[18]
  TGI: > 100 µM
[19]
  TGI: > 100 µM
[20]
  TGI: > 100 µM
[21]
  TGI: > 100 µM
[22]
  TGI: > 100 µM
[23]
  TGI: > 100 µM
[24]
  TGI: > 100 µM
[25]
  TGI: > 100 µM
[26]
  TGI: > 100 µM
[27]
  TGI: > 100 µM
[28]
  TGI: > 100 µM
[29]
  TGI: > 100 µM
[30]
  TGI: > 100 µM
[31]
  TGI: > 100 µM
[32]
  TGI: > 100 µM
[33]
  TGI: > 100 µM
[34]
  TGI: > 100 µM
[35]
  TGI: > 100 µM
[36]
  TGI: > 100 µM
[37]
  TGI: > 100 µM
[38]
  TGI: > 100 µM
[39]
  TGI: > 100 µM
[40]
  TGI: > 100 µM
[41]
  TGI: > 100 µM
[42]
  TGI: > 100 µM
[43]
  TGI: > 100 µM
[44]
  TGI: > 100 µM
[45]
  TGI: > 100 µM
[46]
  TGI: > 100 µM
[47]
  TGI: > 100 µM
[48]
  TGI: > 100 µM
[49]
  TGI: > 100 µM
[50]
  TGI: > 100 µM
[51]
  TGI: > 100 µM
[52]
  TGI: > 100 µM
[53]
  TGI: > 100 µM
[54]
  TGI: > 100 µM
[55]
  TGI: > 100 µM
[56]
  TGI: > 100 µM
[57]
  TGI: > 100 µM

## O=C1C(c2ccccc2)=C(c2ccccc2)C(c2ccc(-c3ccc(C4=C(c5ccccc5)C(=O)C(c5ccccc5)=C4c4ccccc4)cc3)cc2)=C1c1ccccc1
[1]
  TGI: > 100 µM
[2]
  TGI: > 100 µM
[3]
  TGI: > 100 µM
[5]
  TGI: > 100 µM
[6]
  TGI: > 100 µM
[7]
  TGI: > 100 µM
[58]
  TGI: > 100 µM
[8]
  TGI: > 100 µM
[9]
  TGI: > 100 µM
[10]
  TGI: > 100 µM
[12]
  TGI: > 100 µM
[13]
  TGI: > 100 µM
[14]
  TGI: > 100 µM
[15]
  TGI: > 100 µM
[16]
  TGI: > 100 µM
[17]
  TGI: > 100 µM
[18]
  TGI: > 100 µM
[19]
  TGI: > 100 µM
[20]
  TGI: > 100 µM
[21]
  TGI: > 100 µM
[22]
  TGI: > 100 µM
[23]
  TGI: > 100 µM
[24]
  TGI: > 100 µM
[25]
  TGI: > 100 µM
[26]
  TGI: > 100 µM
[27]
  TGI: > 100 µM
[28]
  TGI: > 100 µM
[29]
  TGI: > 100 µM
[30]
  TGI: > 100 µM
[31]
  TGI: > 100 µM
[32]
  TGI: > 100 µM
[33]
  TGI: > 100 µM
[59]
  TGI: > 100 µM
[34]
  TGI: > 100 µM
[35]
  TGI: > 100 µM
[36]
  TGI: > 100 µM
[37]
  TGI: > 100 µM
[38]
  TGI: > 100 µM
[39]
  TGI: > 100 µM
[40]
  TGI: > 100 µM
[41]
  TGI: > 100 µM
[42]
  TGI: > 100 µM
[44]
  TGI: > 100 µM
[45]
  TGI: > 100 µM
[46]
  TGI: > 100 µM
[47]
  TGI: > 100 µM
[48]
  TGI: > 100 µM
[50]
  TGI: > 100 µM
[51]
  TGI: > 100 µM
[52]
  TGI: > 100 µM
[53]
  TGI: > 100 µM
[54]
  TGI: > 100 µM
[55]
  TGI: > 100 µM
[56]
  TGI: > 100 µM
[57]
  TGI: > 100 µM

## C[Si]1(C)C(c2ccccc2)=CC2C(c3ccccc3)(c3ccccc3)OC21c1ccccc1 (stereo unspecified)
[1]
  TGI: > 100 µM
[2]
  TGI: > 100 µM
[3]
  TGI: > 100 µM
[4]
  TGI: > 100 µM
[5]
  TGI: > 100 µM
[6]
  TGI: > 100 µM
[7]
  TGI: > 100 µM
[58]
  TGI: > 100 µM
[8]
  TGI: > 100 µM
[9]
  TGI: > 100 µM
[10]
  TGI: > 100 µM
[11]
  TGI: > 100 µM
[12]
  TGI: > 100 µM
[13]
  TGI: > 100 µM
[14]
  TGI: > 100 µM
[15]
  TGI: > 100 µM
[16]
  TGI: > 100 µM
[17]
  TGI: > 100 µM
[18]
  TGI: > 100 µM
[19]
  TGI: > 100 µM
[20]
  TGI: > 100 µM
[21]
  TGI: > 100 µM
[22]
  TGI: > 100 µM
[23]
  TGI: > 100 µM
[24]
  TGI: > 100 µM
[25]
  TGI: > 100 µM
[26]
  TGI: > 100 µM
[27]
  TGI: > 100 µM
[28]
  TGI: > 100 µM
[29]
  TGI: > 100 µM
[30]
  TGI: > 100 µM
[31]
  TGI: > 100 µM
[32]
  TGI: > 100 µM
[33]
  TGI: > 100 µM
[59]
  TGI: > 100 µM
[34]
  TGI: > 100 µM
[36]
  TGI: > 100 µM
[37]
  TGI: > 100 µM
[38]
  TGI: > 100 µM
[39]
  TGI: > 100 µM
[40]
  TGI: > 100 µM
[41]
  TGI: > 100 µM
[42]
  TGI: > 100 µM
[43]
  TGI: > 100 µM
[44]
  TGI: > 100 µM
[45]
  TGI: > 100 µM
[46]
  TGI: > 100 µM
[47]
  TGI: > 100 µM
[48]
  TGI: > 100 µM
[50]
  TGI: > 100 µM
[51]
  TGI: > 100 µM
[52]
  TGI: > 100 µM
[53]
  TGI: > 100 µM
[54]
  TGI: > 100 µM
[55]
  TGI: > 100 µM
[56]
  TGI: > 100 µM
[57]
  TGI: > 100 µM

## Nc1[nH]c(=O)nc2c1cnn2Cc1ccccc1
[1]
  GI50: > 100 µM
  TGI: > 100 µM
[2]
  TGI: > 100 µM
[3]
  TGI: > 100 µM
[4]
  TGI: > 100 µM
[60]
  GI50: 36.2 µM
  TGI: > 100 µM
[5]
  TGI: > 100 µM
[6]
  TGI: > 100 µM
[7]
  TGI: > 100 µM
[58]
  TGI: > 100 µM
[8]
  TGI: > 100 µM
[9]
  TGI: > 100 µM
[61]
  GI50: > 100 µM
  TGI: > 100 µM
[10]
  TGI: > 100 µM
[11]
  GI50: > 100 µM
  TGI: > 100 µM
[12]
  TGI: > 100 µM
[13]
  TGI: > 100 µM
[14]
  TGI: > 100 µM
[15]
  TGI: > 100 µM
[16]
  GI50: > 100 µM
  TGI: > 100 µM
[17]
  TGI: > 100 µM
[62]
  GI50: > 100 µM
  TGI: > 100 µM
[18]
  TGI: > 100 µM
[19]
  TGI: > 100 µM
[20]
  TGI: > 100 µM
[21]
  TGI: > 100 µM
[22]
  TGI: 3.05 µM
[23]
  TGI: > 100 µM
[24]
  TGI: > 100 µM
[25]
  TGI: > 100 µM
[27]
  TGI: > 100 µM
[63]
  GI50: > 100 µM
  TGI: > 100 µM
[64]
  GI50: > 100 µM
  TGI: > 100 µM
[65]
  GI50: > 100 µM
  TGI: > 100 µM
[28]
  TGI: > 100 µM
[31]
  TGI: > 100 µM
[32]
  GI50: > 100 µM
  TGI: > 100 µM
[66]
  GI50: > 100 µM
  TGI: > 100 µM
[33]
  GI50: > 100 µM
  TGI: > 100 µM
[59]
  TGI: > 100 µM
[35]
  TGI: > 100 µM
[67]
  GI50: > 100 µM
  TGI: > 100 µM
[36]
  TGI: > 100 µM
[38]
  TGI: > 100 µM
[39]
  TGI: > 100 µM
[40]
  TGI: > 100 µM
[41]
  TGI: > 100 µM
[42]
  TGI: > 100 µM
[44]
  TGI: > 100 µM
[45]
  GI50: > 100 µM
  TGI: > 100 µM
[46]
  TGI: > 100 µM
[47]
  TGI: > 100 µM
[48]
  TGI: > 100 µM
[49]
  TGI: 3.08 µM
[50]
  TGI: > 100 µM
[51]
  TGI: > 100 µM
[68]
  GI50: > 100 µM
  TGI: > 100 µM
[53]
  TGI: 2.73 µM
[54]
  TGI: > 100 µM
[55]
  GI50: > 100 µM
  TGI: > 100 µM
[56]
  TGI: > 100 µM
[57]
  TGI: > 100 µM
